{"source": "patent US20100069340A1", "about": "“PHARMACEUTICAL COMPOSITIONS OF AN SRC KINASE INHIBITOR AND AN AROMATASE INHIBITOR” (Wyeth, priority 2008, published 2010)", "key": {"MDA-MB-361": {"tested_on": "MDA-MB-361", "assay": "Cell proliferation assay (CellTiter Glo), MDA-MB-361", "assay_type": "cell-based", "procedure": "(§1) Cell lines were obtained from ATCC. Estrogen was obtained from SIGMA, 4-hydroxytamoxifen was obtained from SIGMA, Bosutinib was used for these studies. Charcoal-stripped serum and phenol red-free medium was obtained from Invitrogen. CellTiter Glo was obtained from Promega.\n(§2) Cell cultures. Proliferation assays with cells in complete fetal calf serum were performed with medium containing phenol red. For all assays examining estrogen-dependence, cells were cultured in phenol red-free medium; DMEM/F12 (MCF7), RPMI1640 (MDA-MB-361, T47D) MEM (BT20, MDA-MB-231) McCoys5A modified (SKBR3), Leibowitz' L15 medium supplemented with 10 ng/mL insulin (MDA-MB-435 and MDA-MB-468) with 10% fetal bovine serum supplemented with glutamine and gentamicin. For proliferation assays, trypsinized cells were subjected to three cycles of centrifugation and resuspension in phenol red-free medium supplemented with charcoal stripped medium (5% final), glutamine and Pen/Strep. Cells were plated on day 0, with or without estrogen (10 nM final concentration). On day 1, 4-hydroxytamoxifen and SKI-606 or DMSO were added as a serial dilution. Cells were incubated for 7 days, after which CellTiter Glo (Promega) was added as recommended by the manufacturer. After mixing and two hours incubation on the bench, plates were read on an Envision reader. […] The 10 uM data point was dropped for these two lines since there was a clear plateau prior to the sharp drop in luminescence observed at 10 uM compound. The IC50 was calculated using a floating minima corresponding to the lowest luminescence value at 5 uM.\n(§3) Cell proliferation assays were performed in two formats; a three day proliferation assay in fully supplemented medium with phenol red, and a 7 day proliferation assay in phenol red free medium supplemented with charcoal-stripped medium. […] ER positive T47D cells were slightly more sensitive to SKI-606 in the presence of estrogen. BT20 cells were equally sensitive to SKI-606 in stripped serum medium, regardless of whether estrogen was present.\n(§4) Proliferation data for SKI-606 in various breast tumor lines in complete medium (10% FCS) and charcoal stripped serum with no phenol red (no E2, E2) with and without 10 nM estrogen. The complete medium data were obtained in 3-day assays, while stripped serum assays were extended for 7 days with one change of medium at day 5. The IC50 values for the BT20 line was calculated using the “plateau” cell number evident at 5 μM SKI-606."}, "MCF7": {"tested_on": "MCF7", "assay": "Cell proliferation assay (CellTiter Glo), MCF7", "assay_type": "cell-based", "procedure": "as §1, §2, §3, §4"}}, "data": [{"substance": "4-hydroxytamoxifen", "values": [{"measurement": "cell proliferation in the absence of estrogen", "setting": "MDA-MB-361; MDA-MB-361, absence of estrogen", "value": "little effect"}, {"measurement": "effect on estrogen-stimulated proliferation", "setting": "MDA-MB-361; MDA-MB-361, presence of estrogen", "value": "inhibited in a dose-dependent manner"}, {"measurement": "estrogen-independent cell proliferation", "setting": "MCF7; MCF7, absence of estrogen", "value": "inhibits"}, {"measurement": "effect on estrogen-stimulated proliferation", "setting": "MCF7; MCF7, presence of estrogen", "value": "inhibited in a dose-dependent manner"}]}]}
